According to patent US20080292723A1, “Bioactive acid agrichemical compositions and use thereof” (priority 2007, published 2008):

Assays:
E. amylovora 153N = assay: Fire blight on crabapples; format: in vivo, Snow Drift crabapple trees; settings: for canker, in words / shoot blight incidence, in words: day 63
Description: A study of the bioefficacy of the various agrichemical compositions, including bioactive acid solutions and blends thereof with an antibiotic agrichemical, were evaluated to assess their bioefficacy against fire blight on crabapples. The study was conducted on 5 year old Snow Drift crabapple trees, with each of the compositions being applied to ten trees in two-subplots of five trees, four different times: at 100% bloom-day 1, a second application was made on day 4, a third on day 11 and a final treatment on day 19. The trees were inoculated with E. amylovora […] at a concentration of 4×10^6 cells per milliliter on day 1, following drying of the treatment, with the inoculation being repeated on day 13. Evaluation for fire blight was completed on 100 blossoms for each of the subplots on day 12, day 19 and day 27. Additionally, the incidence of shoot infection and the length of […] evaluated on day 63. The test compositions were prepared by forming solutions of the bioactive agents. Two different dilutions of the MI2 bioactive were evaluated, the first employing 94.46 ml/gallon (25 ml/l) of water (5 ppm of each metal) and the second 188.9 ml/gallon (50 ml/l) of water (10 ppm of each metal). […] Finally, copper hydroxide was diluted at a rate of 1 lb/gallon (119.8 g/l). Each of the compositions and blends were spray applied at a rate of 50 gallons (189.3 l) pre acre. The results are presented as the mean of the counts.

[1] = test system: Saccharomycetes Cerevisiae (Fleishmann's Bakers yeast); assay: Yeast growth inhibition by turbidity; format: cell-based; settings: Table 12, surfactant ~0.05 wt %, neat additive, Metal 0 ppm
Description: Saccharomycetes Cerevisiae was selected as a test organism as it is generally accepted in the industry as an indicator or surrogate organism for a wide variety of fungi. In each of these experiments, the same general procedure was followed unless otherwise indicated.
Experimental Detail: A growth medium was prepared by adding 10 grams of nutrient medium (Difco Sabouraud dextrose broth from BD of Franklin Lakes, N.J., USA) to 300 ml of distilled water. Fleishmann's Bakers yeast was then added to the growth medium while mixing using a magnetic stirrer until a uniform dispersion was obtained having an initial turbidity of between about 50 and 100 NTU as measured using a HF Instruments DRT 100B Turbidity Meter. […] The system/component to be evaluated was then added to the vial and intimately shaken to ensure a good, substantially homogeneous mixture. The turbidity of each mixture was then determined and the vial transferred to an incubator at 30° C. Each vial was periodically removed from the incubator and the mixture in the vials assessed for turbidity: the specific timing for such evaluation was as set forth in the discussion of the experiments and the accompanying tables. […]
In the tables below, the results are presented as the actual turbidity readings (NTU) with a sub-table presenting the change or delta in NTU values. […]

SMILES	Shoot Incidence (E. amylovora 153N; Day 63, rate 5 lbs/a (2.27 kg/a), mean of counts)	canker, in words (E. amylovora 153N)	shoot blight incidence, in words (E. amylovora 153N)	T0 (turbidity) [1]
[Cu+2].[OH-].[OH-] [copper hydroxide]	1.0	appeared to prevent canker	greatly reduced	–
[H]/N=C(/N)N[C@H]1[C@H](O)[C@@H](O)[C@H](O[C@@H]2O[C@@H](C)[C@](O)(C=O)[C@H]2O[C@@H]2O[C@@H](CO)[C@H](O)[C@@H](O)[C@@H]2NC)[C@@H](N/C(N)=N\[H])[C@@H]1O [streptomycin]	–	appeared to prevent canker	greatly reduced	–
CCCCCCCCCCCCOS(=O)(=O)[O-].[Na+]	–	–	–	48
